Test results published in US9199917B2, “N-substituted benzenepropanamide or benzenepropenamide derivatives for use in the treatment of pain and inflammation” (Novaremed Limited, priority 2008, dated 2015).

System: Balb/c mice
Experiment: Hot-Plate Test of Balb/c mice vs. imipramine, i.p. & p.o. (Example 2)
Type: in vivo
Conditions: 5 mg/kg i.p. at t=0, group Average
Procedure: 14-week old male Balb/c mice (non-naive) were divided into four groups of seven mice per group and treated at t=0 as detailed in Table 3 below:
Compound 18 stock comprises 9.4 mg Compound 18, 0.2 mL DMSO and 0.8 mL saline.
As in Example 1 above, the response latencies of the mice in the respective groups were tested using a hot-plate at t=−60 mins., 0 mins., 60 mins., 120 mins., 180 mins., 240 mins., 300 mins. and 360 mins.

SMILES: CN(C)CCCN1c2ccccc2CCc2ccccc21 [Imipramine, imipramine]
- hot-plate response latency (tested at t=0 mins.): 13.7 s
- hot-plate response latency (tested at t=60 mins.): 14.9 s
- hot-plate response latency (tested at t=120 mins.): 14.6 s
- hot-plate response latency (tested at t=240 mins.): 22.9 s
- hot-plate response latency (tested at t=300 mins.): 23.1 s
